Measured values as given in article PMC11809512, “Looking for approved-medicines to be repositioned as anti-Trypanosoma cruzi agents. Identification of new chemotypes with good individual- or in combination-biological behaviours” (Memórias do Instituto Oswaldo Cruz, 2025).
Like-named read-outs stand apart in the source and are kept apart here.

Legend:
[1] = system: epimastigotes of T. cruzi (Tulahuen 2 strain, DTU Tc VI); experiment: Screening / IC50 against T. cruzi epimastigotes (growth, absorbance 610 nm, 5 days); type: cell-based, Trypanosoma cruzi; details: for SIepi: SIepi = IC50,J774.1A/IC50,epi; for IC50: Trypanosoma cruzi, 120 h, read-out: IC50,epi; for anti-epimastigote activity in the initial screening (in words): 25 µM or 100 µg/mL, cut-off more than 65% inhibition
Experimental: (§1) Screening - Entities, dissolved in dimethylsulfoxide (DMSO, Sigma) before use and then diluted in a culture milieu, were firstly tested against epimastigotes of T. cruzi [Tulahuen 2 strain, discrete typing unit (DTU) Tc VI] as previously described.[14] ^, [15] […] The system was incubated at 28 °C for five days and to assess cell proliferation, cell density was monitored at 610 nm at time 0 (Ap0) and five days post incubation (Ap). All measures were normalised to the control population at day 0 (Ac0) and at day 5 (Ac5). Control parasites were incubated with 0.4% DMSO, corresponding to the highest DMSO concentration of the well. The percentage of parasite inhibition was calculated as: […]. This assay was independently performed three times. […] Secondly,[16] Vero (ATCC® CCL-81™) cells were infected with T. cruzi metacyclic trypomastigotes from 15 days old Dm28 clone (DTU Tc I) epimastigote cultures. Subsequently, the trypomastigotes harvested from this culture were used to infect further Vero cell cultures at a multiplicity of infection of 10. These trypomastigote-infected Vero cell cultures were incubated at 37 °C in humidified air and 5% CO2 for five to seven days. After this time, cellular trypomastigotes were collected from the supernatant by centrifugation at 3,000 × g for 10 min. The trypomastigote-containing pellets were resuspended in RPMI media supplemented with 5% foetal bovine serum (FBS) and penicillin/streptomycin at a final density of 1 × 10^8 parasites/mL. For viability assays, 1 × 10^7 trypomastigotes were seeded in black 96 well plates in RPMI and incubated with increasing concentrations of the entities under study for 24 h. Viability was analysed using resazurin, which is reduced to highly fluorescent resorufin. 50 μL of resazurin solution (2 mg/mL in RPMI) were added to each well and incubated for 4 h at 37 °C. Fluorescence (excitation 530 nm / emission 590 nm) was measured in a Thermo Scientific Varioskan® Flash Multimode plate spectrofluorimeter instrument. Untreated parasites were used as negative controls (100% of viability). […] Thirdly, for infection persistence analysis,[16] trypomatigotes Vero cells (at a multiplicity of infection of 10) growing in RPMI were trypsinised and replated in 24-wll plates (2-3 × 10^5 cells/well). […] After 24 h of incubation, cells were washed with phosphate-buffered saline (PBS), fixed with 4% paraformaldehyde, and stained with DAPI. Infected cells and amastigotes per cell were counted from randomly selected fields (400 cells per conditions). Two independent infections with trypomastigotes pre-treated with entities by two independent technicians were analysed. The percentage of uninfected Vero cells over total cells, as well as the percentage of decrease in the number of amastigotes per infected cell, was counted for each studied compound concentration tested and normalised against control untreated parasites.

[2] = system: J774.1A macrophages; experiment: Cytotoxicity on macrophages (MTT, 48 h); type: cell-based; details: Macrophage, read-out: IC50,J774.1A
Experimental: Cytotoxicity - J774.1A macrophages (ATCC® TIB67™) were grown in DMEM milieu supplemented with 10% […] FBS, 1% L-glutamine, 1% streptomycin, and 100 units/mL penicillin. Cell viability was assessed using the MTT protocol. […] Cells were grown in 96-well plates (5 × 10^4 cells/well) for 24 h. Cultures were carried out at 37 °C in a humidified atmosphere with 5% CO2 and incubated with the compounds at different concentrations for 48 h. After incubation, the milieu was removed, and the cells were treated with 100 μL of 0.4 mg/mL MTT for 4 h at 37 °C. Subsequently, 100 μL of DMSO was added to the mixture. The solubilised formazan product was quantified through absorbance measurements at 570 nm. The absorbance values were transformed to the percentage of cytotoxicity compared to the negative controls.

[3] = system: amastigote forms of T. cruzi in Vero cells (Dm28 clone, DTU Tc I); type: cell-based; details: 24 h
Experimental: as §1
The number of amastigotes per cell as well as the number of infected cells was then counted.

[4] = system: epimastigote T. cruzi; experiment: Anti-epimastigote activity in modified milieu (excess Ca2+, glutamate or N-acetyl-L-cysteine, 1 mM); type: cell-based; details: Trypanosoma cruzi; for inhibition at 25 µM: read-out: Percentage of growth inhibition at 25 µM
Experimental: Three controls of untreated parasites and containing excess of calcium (II), glutamate or N-acetyl-L-cysteine (1 mM) were included. All treated and untreated wells contain no more than 0.4% of DMSO. Controls were used to calculate the relative proliferation in the treatment wells. Assays were performed in triplicate for all cases.

[5] = system: Trypanosoma cruzi trypomastigotes (Dm28c); experiment: Trypomastigote viability (resazurin, 24 h); type: cell-based; details: fixed concentrations, Fig. 1
Experimental: Screening - Entities, dissolved in dimethylsulfoxide (DMSO, Sigma) before use and then diluted in a culture milieu, were firstly tested against epimastigotes of T. cruzi [Tulahuen 2 strain, discrete typing unit (DTU) Tc VI] as previously described.[14] ^, [15] […] The system was incubated at 28 °C for five days and to assess cell proliferation, cell density was monitored at 610 nm at time 0 (Ap0) and five days post incubation (Ap). All measures were normalised to the control population at day 0 (Ac0) and at day 5 (Ac5). Control parasites were incubated with 0.4% DMSO, corresponding to the highest DMSO concentration of the well. The percentage of parasite inhibition was calculated as: (Ap - Ap0)/(Ac5 - Ac0) × 100. This assay was independently performed three times. […] Secondly,[16] Vero (ATCC® CCL-81™) cells were infected with T. cruzi metacyclic trypomastigotes from 15 days old Dm28 clone (DTU Tc I) epimastigote cultures. […] Viability was analysed using resazurin, which is reduced to highly fluorescent resorufin. […] Fluorescence (excitation 530 nm / emission 590 nm) was measured in a Thermo Scientific Varioskan® Flash Multimode plate spectrofluorimeter instrument. […] Infected cells and amastigotes per cell were counted from randomly selected fields (400 cells per conditions). Two independent infections with trypomastigotes pre-treated with entities by two independent technicians were analysed. […]

[6] = epimastigotes Tulahuen 2, 5 days
[7] = Ca2+ 1 mM, read-out: IC50,epi with excess of Ca2+

| SMILES | SIepi [1] | IC50 [1, 6] | IC50 ([2]; macrophages, MTT) | further results |
| --- | --- | --- | --- | --- |
| CN(C/C=C/C#CC(C)(C)C)Cc1cccc2ccccc12 [Terb, Terbinafine] | 3.05 | 21.4 µM | 65 µM | %dnac: percentage of decrease in the number of amastigotes per treated Vero cell respect to control ([3]; 6.25 µM): 20%; %ucell: percentage of uninfected Vero cells with amastigotes respect to untreated parasites ([3]; 6.25 µM): 4%; %dnac: percentage of decrease in the number of amastigotes per treated Vero cell respect to control ([3]; 12.5 µM): 23%; %ucell: percentage of uninfected Vero cells with amastigotes respect to untreated parasites ([3]; 12.5 µM): 15% |
| CC1CS(=O)(=O)CCN1/N=C/c1ccc([N+](=O)[O-])o1 (centres unmarked) [Nfx, nifurtimox] |  |  |  | inhibition at 25 µM ([4]; with Ca2+ (1 mM)): 61%; inhibition at 25 µM ([4]; with Glu (1 mM)): 55%; inhibition at 25 µM ([4]; with NAC (1 mM)): 20%; inhibition at 25 µM ([4]; without Ca2+): 70%; inhibition at 25 µM ([4]; without Glu): 70%; inhibition at 25 µM ([4]; without NAC): 74% |
| C#Cc1cccc(Nc2ncnc3cc(OCCOC)c(OCCOC)cc23)c1 [Erlo, Erlotinib] |  |  |  | anti-epimastigote activity in the initial screening (in words) [1]: did not display anti-T. cruzi activities in the assayed conditions |
| CCC(C)(C)C(=O)O[C@H]1C[C@@H](C)C=C2C=C[C@H](C)[C@H](CC[C@@H]3C[C@@H](O)CC(=O)O3)[C@H]21 [Simv, Simvastatin] | 0.88 | 7.36 µM | 6.5 µM |  |
| CCN(CC)CCNC(=O)c1c(C)[nH]c(/C=C2\C(=O)Nc3ccc(F)cc32)c1C [Sun, Sunitinib] |  |  |  | anti-epimastigote activity in the initial screening (in words) [1]: did not display anti-T. cruzi activities in the assayed conditions |
| NC(=O)NN=C1C=Cc2ccccc2C1=O [Naft, Naftazone] | 135.7 | 0.75 µM | 102 µM | %dnac: percentage of decrease in the number of amastigotes per treated Vero cell respect to control ([3]; 6.25 µM): 0%; %ucell: percentage of uninfected Vero cells with amastigotes respect to untreated parasites ([3]; 6.25 µM): 0%; %dnac: percentage of decrease in the number of amastigotes per treated Vero cell respect to control ([3]; 12.5 µM): 0%; %ucell: percentage of uninfected Vero cells with amastigotes respect to untreated parasites ([3]; 12.5 µM): 0%; %dnac: percentage of decrease in the number of amastigotes per treated Vero cell respect to control ([3]; 25 µM): 24%; %ucell: percentage of uninfected Vero cells with amastigotes respect to untreated parasites ([3]; 25 µM): 15%; anti-trypomastigote activity (in words) [5]: excellent cytotoxic agent for this form of the parasite; IC50 [4, 7]: 2.8 µM; IC50 ([4]; NAC 1 mM, read-out: IC50,epi with excess of N-acetyl-L-cysteine (NAC)): 1.9 µM; IC50 ([4]; glutamate 1 mM, read-out: IC50,epi with excess of glutamate): 13.5 µM |
| O=C(Cn1ccnc1[N+](=O)[O-])NCc1ccccc1 [Bnz, Benznidazole] | 50.2 | 4.93 µM | 247 µM |  |
| O=C1CN(/N=C/c2ccc([N+](=O)[O-])o2)C(=O)N1 [Nitrof, Nitrofurantoin] | 4.59 | 13.3 µM | 61.1 µM |  |
| CCOC(=O)N1CCC(=C2c3ccc(Cl)cc3CCc3cccnc32)CC1 [Lorat, Loratadine] | 8.21 | 0.95 µM | 7.8 µM |  |
| C[C@H]1c2cccc(O)c2C(=O)C2=C(O)[C@]3(O)C(=O)C(C(N)=O)=C(O)[C@@H](N(C)C)[C@@H]3[C@@H](O)[C@@H]21 [Dox, Doxycycline] | 1.24 | 19.1 µM | 23.8 µM |  |
| CC(=O)N1CCN(c2ccc(OCC3COC(Cn4ccnc4)(c4ccc(Cl)cc4Cl)O3)cc2)CC1 (centres unmarked) [Ket, Ketoconazole] | 2.60 | 5.13 µM | 13.3 µM |  |
| NCC1(CC(=O)O)CCCCC1 [Gaba, Gabapentin] |  |  |  | IC50 ([1]; TULAHUEN): 6.01 µM; IC50 [2]: 19.1 µM; IC50 ([4]; read-out: IC50,epi with excess of Ca2+): > 25 µM; IC50 ([4]; read-out: IC50,epi with excess of glutamate): > 25 µM |
| CS(=O)(=O)CCNCc1ccc(-c2ccc3ncnc(Nc4ccc(OCc5cccc(F)c5)c(Cl)c4)c3c2)o1 [Lapa, Lapatinib] |  | 16.6 µM | 7.6 µM |  |
| CCOC(=O)C1=C(COCCN)NC(C)=C(C(=O)OC)C1c1ccccc1Cl (centres unmarked) [Amlod, Amlodipine] | 7.00 | 13.7 µM | 95.7 µM | IC50 [4, 7]: ~25 µM |
